Key:
[1] = tested on: mice irradiated with ultraviolet rays; experiment: Wrinkle formation caused by UV irradiation; type: in vivo, Skh-1 hairless mice; conditions: 10 mM in drinking water for four weeks; UV-B three times a week, total 1.4 J/cm^2; score 0-8 per Table 1; control 4.9; p<1%
Protocol: Four weeks after the initiation of the D-glutamic acid administration, the dorsal areas of the mice were photographed, and a partly modified method by Bissett et al. (Bissett, D. L. et al., Photochemistry and Photobiology, 46:367(1987)) was employed to evaluate the degree of wrinkle formation in accordance with the judgment criteria indicated in Table 1 shown below.
(§1) Six week-old Skh-1 hairless mice (male) were employed.
(§2) Drinking water containing 10 mM D-glutamic acid was given via a water supplying bottle for four weeks. The negative control employed was drinking water containing no D-glutamic acid.
(§3) UV irradiation was conducted employing a partly modified method by Schwarz et al. (Haratake, A. et al., J. Invest. Dermatol. 108:769 (1997)) in accordance with the repetitive UV-B irradiation method (Naganuma, M. et al., J. Dermatol.Sci.25:29 (2001), Schwartz, E. J., Invest. Dermatol. 91:158 (1988)). Thus, the dorsal area was irradiated with UV-B(light source: Toshiba FL-20 SE fluorescent lamp manufactured by Toshiba Electric) three times a week for four weeks. The total irradiation dose was 1.4 J/cm^2. The UV dose measured with UVRADIOMETER (UVR-305/365D(II), Topcon Corporation) was employed as a readout.
The wrinkle formation was evaluated by a method similar to that in Example 1.

tape-stripped mice [2] = experiment: Wrinkle formation caused by tape stripping method; type: in vivo, HR-1 hairless mice; conditions: 10 mM in drinking water for four weeks, score 0-8 per Table 1, control 3.5, p<1%
Protocol: (§4) Five-week old male HR-1 hairless mice (Hoshino Laboratory Animals, Inc.) were subjected to the experiment.
as §2
(§5) For the purpose of forming a wrinkle, a tape stripping method was conducted three times a week starting on five days after the initiation of the D-glutamic acid administration according to the method by Matsunaga et al. (Matsunaga, Y. et al., Br. J. Dermatol., 156:884 (2007)). Briefly, a 24-mm width cellophane tape (Cellotape (trade mark), Nichiban Co., Ltd.) cut in a length suited to the dorsal length of a hairless mouse (HR-1 strain; Hoshino Laboratory Animals, Inc., Tokyo) was adhered evenly over the entire dorsal area and then peeled off. […] For example when a non-treated hairless mouse was subjected to the adhesion/peeling off cycle procedures, the first treatment involved four cycles, and the second and third treatments involved each five to six cycles and the treatment in the second week and later involved six to eight cycles, whereby increasing the quantity of the horny layer water loss to about to 8 mg/cm^2/h. […]

[3] = tested on: mice irradiated with ultraviolet rays; experiment: Transepidermal water loss (skin barrier function) in mice irradiated with ultraviolet rays; type: in vivo, Skh-1 hairless mice; conditions: 10 mM in drinking water for four weeks; UV-B three times a week, total 1.4 J/cm^2; control 16
Protocol: as §1, §2, §3
Four weeks after the initiation of the D-glutamic acid administration, the quantity of the transepidermal water loss was measured according to a standard method.

tape-stripped mice [4] = experiment: Skin thickening caused by tape stripping method; type: in vivo, HR-1 hairless mice; conditions: 10 mM in drinking water for four weeks; tape stripping three times a week; negative control 1.2; p<0.1%
Protocol: as §4, §2
as §5, with “(2007)).” for “(2007)). Briefly, a 24-mm width cellophane tape (Cellotape (trade mark), Nichiban Co., Ltd.) cut in a length suited to the dorsal length of a hairless mouse (HR-1 strain; Hoshino Laboratory Animals, Inc., Tokyo) was adhered evenly over the entire dorsal area and then peeled off.”
Four weeks after the initiation of the D-glutamic acid administration, the skin thickness was measured using a thickness gauge. The measured value of the skin thickness represented as “skin thickness×2”, since the measurement was conducted by calipering the skin with the thickness gauge.

For `N[C@H](CCC(=O)O)C(=O)O` [D-glutamic acid], the wrinkle score [1] was 3.3, the wrinkle score (tape-stripped mice [2]) was 1.5 and the “quantity of the transepidermal water loss” value [3] was 13. The “mean value of the skin thickness (skin thickness×2)” value (tape-stripped mice [4]) was 1.05.
